Reference: patent publication US7713994B2 (Wyeth LLC, priority 2005, dated 2010)
Where two headings read alike, the source gives them in different places.

Key:
cyclin D1/cdk 4 enzyme = molecular target: T1, cyclin D1/cdk 4 enzyme (Homo sapiens, UniProt P11802); experiment: CDK4 ELISA kinase assay (phospho-Rb ser 795 detection); type: biochemical; conditions: In Vitro Enzyme Assays, 200 μM ATP, read-out: CDK4 IC50
T1 construct: made in house; host or cells: Sf9 insect cells, recombinant baculovirus
In short: (§1)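 GST-Rb C-terminal fragment coated on wells; kinase reaction: 200 μM ATP, 0.5 mg/ml BSA, HEPES pH 7.5, 10 mM MgCl2, baculovirus/Sf9 cyclin-CDK, 30° C, 1 h. Readout anti-phospho-Rb Ser795, HRP, TMB, A450. Test compound 10 ug/ml final.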

cyclin E/CDK2 enzyme = molecular target: T2, cyclin E/CDK2 enzyme (Homo sapiens, UniProt P24941); experiment: CDK2 ELISA kinase assay (phospho-Rb ser 795 detection); type: biochemical; conditions: In Vitro Enzyme Assays, read-out: CDK2 IC50
T2 construct: made in house; host or cells: Sf9 insect cells, recombinant baculovirus
In short: as §1

cyclin B/CDK1 enzyme = molecular target: T3, cyclin B/CDK1 enzyme (Homo sapiens, UniProt P06493); experiment: CDK1 ELISA kinase assay (phospho-Rb ser 795 detection); type: biochemical; conditions: In Vitro Enzyme Assays, read-out: CDK1 IC50
T3 construct: purchased New England BioLabs; host or cells: Sf9 insect cells, recombinant baculovirus
In short: as §1

BT474 = experiment: Cytotoxicity assay (SRB), BT474; type: cell-based; conditions: BT474 cells, SRB, 6 days, read-out: In Vitro Cellular Activity IC50 BT474
In short: (§2)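 Seeding: BT474 12000, HCT-116 4000, LoVo 6000, MCF-7 6000 cells/well; overnight attachment, 37 °C, 7% CO2. Drug exposure 3 d (BT474 6 d), RPMI 1640 + 5% FBS. Readout: TCA fix, 0.4% SRB, Tris solubilisation, A540.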

HCT-116 = experiment: Cytotoxicity assay (SRB), HCT-116; type: cell-based; conditions: HCT116 cells, SRB, three days, read-out: In Vitro Cellular Activity IC50 HCT116
In short: as §2

LoVo = experiment: Cytotoxicity assay (SRB), LoVo; type: cell-based; conditions: LoVo cells, SRB, three days, read-out: In Vitro Cellular Activity IC50 LOVO
In short: as §2

MCF-7 = experiment: Cytotoxicity assay (SRB), MCF-7; type: cell-based; conditions: MCF-7 cells, SRB, three days, read-out: In Vitro Cellular Activity IC50 MCF-7
In short: as §2

T1 sequence (P11802 whole entry, species assumed): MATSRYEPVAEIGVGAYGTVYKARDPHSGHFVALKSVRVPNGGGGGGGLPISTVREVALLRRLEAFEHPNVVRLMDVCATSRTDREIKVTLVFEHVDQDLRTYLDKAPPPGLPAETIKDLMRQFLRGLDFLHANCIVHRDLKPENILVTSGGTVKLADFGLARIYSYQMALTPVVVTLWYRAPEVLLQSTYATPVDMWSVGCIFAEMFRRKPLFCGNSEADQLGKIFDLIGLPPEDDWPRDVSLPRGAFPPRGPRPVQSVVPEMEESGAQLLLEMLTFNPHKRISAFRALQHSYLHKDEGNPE
T1 sequence (P24385 whole entry partner, species assumed): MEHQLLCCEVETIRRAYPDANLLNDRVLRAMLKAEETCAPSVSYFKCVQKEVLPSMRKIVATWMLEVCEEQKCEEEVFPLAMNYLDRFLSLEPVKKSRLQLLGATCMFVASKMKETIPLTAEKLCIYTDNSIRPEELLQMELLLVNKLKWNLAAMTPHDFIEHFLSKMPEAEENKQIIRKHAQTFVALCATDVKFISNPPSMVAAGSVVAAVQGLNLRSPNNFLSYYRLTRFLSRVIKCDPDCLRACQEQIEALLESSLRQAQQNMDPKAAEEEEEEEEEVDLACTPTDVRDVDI
T3 sequence (P06493 whole entry): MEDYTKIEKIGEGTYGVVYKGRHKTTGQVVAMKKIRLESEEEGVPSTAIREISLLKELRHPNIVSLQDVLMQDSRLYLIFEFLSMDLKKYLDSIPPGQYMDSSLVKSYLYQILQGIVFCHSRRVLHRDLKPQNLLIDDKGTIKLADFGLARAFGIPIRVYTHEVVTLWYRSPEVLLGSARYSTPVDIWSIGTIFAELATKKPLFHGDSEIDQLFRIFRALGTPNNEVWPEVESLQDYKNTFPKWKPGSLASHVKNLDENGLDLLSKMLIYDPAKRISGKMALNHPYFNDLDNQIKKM
T3 sequence (P14635 whole entry partner): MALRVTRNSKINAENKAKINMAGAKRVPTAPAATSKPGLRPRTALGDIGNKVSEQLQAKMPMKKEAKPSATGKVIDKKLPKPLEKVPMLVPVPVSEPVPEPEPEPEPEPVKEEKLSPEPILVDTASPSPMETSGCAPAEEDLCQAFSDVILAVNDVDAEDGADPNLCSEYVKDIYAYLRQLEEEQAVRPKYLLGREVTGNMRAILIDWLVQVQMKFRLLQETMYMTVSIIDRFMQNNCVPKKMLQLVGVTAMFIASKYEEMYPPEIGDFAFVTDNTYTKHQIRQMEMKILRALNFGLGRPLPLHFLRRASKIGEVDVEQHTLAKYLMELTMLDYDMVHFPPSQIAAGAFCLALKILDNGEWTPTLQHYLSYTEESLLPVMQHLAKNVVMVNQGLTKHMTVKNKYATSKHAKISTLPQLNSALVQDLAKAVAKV

Row | SMILES | IC50 (cyclin D1/cdk 4 enzyme) | IC50 (cyclin E/CDK2 enzyme) | IC50 (cyclin B/CDK1 enzyme) | IC50 (BT474) | IC50 (HCT-116) | IC50 (LoVo) | IC50 (MCF-7) | IC50 (BT474; Homo sapiens, BT-474, 144 h) | IC50 (HCT-116; Homo sapiens, HCT-116, 72 h) | IC50 (LoVo; Homo sapiens, LoVo, 72 h) | IC50 (MCF-7; Homo sapiens, MCF7, 72 h)
1 | CN1CCN(c2ccc(N/C=C3\C(=O)NC(=O)c4ccc(-c5ccsc5)cc43)cc2)CC1 [Example 108, (4Z)-4-({[4-(4-Methylpiperazin-1-yl)phenyl]amino}methylene)-6-thien-3-ylisoquinoline-1,3(2H,4H)-dione] | 120 nM | > 50 µM | > 50 µM | 2.6 µM | 1500 nM | 2.2 µM | 2.5 µM |  |  |  | 
2 | COc1ccc(-c2ccc3c(c2)/C(=C/Nc2ccc(N4CCN(C)CC4)cc2)C(=O)NC3=O)cc1 [Example 114, (4Z)-6-(4-methoxyphenyl)-4-({[4-(4-methylpiperazin-1-yl)phenyl]amino}methylene)-isoquinoline-1,3(2H,4H)-dione] | 7400 nM | > 50 µM | > 50 µM |  |  |  |  | 5 µM | 1900 nM | 6.5 µM | 6.3 µM
3 | CN1CCN(c2ccc(N/C=C3\C(=O)NC(=O)c4ccc(-c5ccc(C=O)cc5)cc43)cc2)CC1 [Example 115, 4-[(4Z)-4-({[4-(4-Methylpiperazin-1-yl)phenyl]amino}methylene)-1,3-dioxo-1,2,3,4-tetra-hydroisoquinolin-6-yl]benzaldehyde] | 130 nM | 7.7 µM | 8.2 µM |  |  |  |  | 6.7 µM | 1600 nM | 6.5 µM | 4.7 µM
4 | COc1cccc(-c2ccc3c(c2)/C(=C/Nc2ccc(CN4CCCCC4)cc2)C(=O)NC3=O)c1 [Example 117, (4Z)-6-(3-Methoxyphenyl)-4-({[4-(piperidin-1-ylmethyl)phenyl]amino}methylene)-isoquinoline-1,3(2H,4H)-dione] | 27800 nM | > 50 µM | > 50 µM |  |  |  |  | 3 µM | 1400 nM | 2.4 µM | 2.7 µM
5 | CCCOc1ccc(CN/C=C2\C(=O)NC(=O)c3ccc(Br)cc32)cc1O [Example 130, (4Z)-6-Bromo-4-{[(3-hydroxy-4-propoxybenzyl)amino]methylene}isoquinoline-1,3(2H,4H)-dione] | 350 nM | 34.5 µM | 42.5 µM |  |  |  |  | 0.65 µM | 730 nM | 0.94 µM | 4 µM
6 | O=C1NC(=O)c2ccc(Br)cc2/C1=C/NCc1ccc(OCCN2CCCC2)c(O)c1 [Example 143, (4Z)-6-Bromo-4-({[3-hydroxy-4-(2-pyrrolidin-1-ylethoxy)benzyl]amino}methylene) isoquinoline-1,3(2H,4H)-dione] | 60 nM | 1.1 µM | 13.6 µM |  |  |  |  | 5.7 µM | 3000 nM | 8.8 µM | 4.3 µM
7 | CC(=O)Nc1ccc(CN/C=C2\C(=O)NC(=O)c3ccc(-c4ccsc4)cc32)cc1O [Example 145, N-[4-({[(Z)-(1,3-Dioxo-6-thien-3-yl-2,3-dihydroisoquinolin-4(1H)-′ylidene)methyl]amino}methyl)-2-hydroxyphenyl]acetamide] | 4 nM | 6.1 µM | 26.3 µM |  |  |  |  | > 50 µM | 32500 nM | 16 µM | > 50 µM
8 | O=C1NC(=O)c2ccc(Br)cc2/C1=C/NCc1ccc(OCc2ccccc2)c(O)c1 [Example 147, (4Z)-4-({[4-(Benzyloxy)-3-hydroxybenzyl]amino}methylene)-6-bromoisoquinoline-1,3(2H,4H)-dione] | 4600 nM | 27.7 µM | > 50 µM |  |  |  |  | > 50 µM | 38000 nM | 40 µM | 36 µM
9 | CCCCOc1ccc(CN/C=C2\C(=O)NC(=O)c3ccc(Br)cc32)cc1O [Example 148, (4Z)-6-Bromo-4-{[(4-butoxy-3-hydroxybenzyl)amino]methylene}isoquinoline-1,3(2H,4H)-dione] | 440 nM | 31.7 µM | > 50 µM |  |  |  |  | 16 µM | 18000 nM | 22 µM | 25 µM
10 | CCCCCCOc1ccc(CN/C=C2\C(=O)NC(=O)c3ccc(Br)cc32)cc1O [Example 150, (4Z)-6-Bromo-4-({[4-(hexyloxy)-3-hydroxybenzyl]amino}methylene)isoquinoline-1,3(2H,4H)-dione] | 7200 nM | > 50 µM | > 50 µM |  |  |  |  | > 50 µM | 49000 nM | > 50 µM | 46 µM
11 | CC(=O)Nc1ccc(CN/C=C2\C(=O)NC(=O)c3ccc(I)cc32)cc1O [Example 151, N-[2-Hydroxy-4-({[(Z)-(6-iodo-1,3-dioxo-2,3-dihydroisoquinolin-4(1H)-′ylidene)methyl]amino}methyl)phenyl]acetamide] | 30 nM | 1.8 µM | 36.4 µM |  |  |  |  | 0.9 µM | 1300 nM | 1.9 µM | 6.6 µM
12 | CN1CCN(c2ccc(N/C=C3\C(=O)NC(=O)c4ccc(-c5ccc(C#N)cc5)cc43)cc2)CC1 [Example 153, 4-(4-{[4-(4-Methyl-piperazin-1-yl)-phenylamino]-methylene}-1,3-dioxo-1,2,3,4-tetrahydro-isoquinolin-6-yl)-benzonitrile] | 800 nM | 4.3 µM | 4.3 µM |  |  |  |  | 3.4 µM | 1100 nM | 3.7 µM | 3.4 µM
13 | CN1CCN(c2ccc(N/C=C3\C(=O)NC(=O)c4ccc(-c5cccc(F)c5)cc43)cc2)CC1 [Example 154, 6-(3-Fluoro-phenyl)-4-{[4-(4-methyl-piperazin-1-yl)-phenylamino]-methylene}-4H-isoquinoline-1,3-dione] | 3300 nM | > 50 µM | > 50 µM |  |  |  |  | 3 µM | 2200 nM | 3.2 µM | 2.7 µM
14 | COc1ccc(CN(C)/C=C2\C(=O)NC(=O)c3ccc(Br)cc32)cc1O [Example 163, (4Z)-6-Bromo-4-{[(3-hydroxy-4-methoxybenzyl)(methyl)amino]methylene}isoquinoline-1,3(2H,4H)-dione] | > 50000 nM | 44.4 µM | > 50 µM |  |  |  |  | 38 µM | 38000 nM | 34 µM | 38 µM
15 | CCOc1ccc(CN/C=C2\C(=O)NC(=O)c3ccc(Br)cc32)cc1O [Example 166, (4Z)-6-Bromo-4-{[(4-ethoxy-3-hydroxybenzyl)amino]methylene}isoquinoline-1,3(2H,4H)-dione] | 30 nM | 45.5 µM | > 50 µM |  |  |  |  | 1.4 µM | 1300 nM | 2.2 µM | 19 µM
16 | O=C1NC(=O)c2ccc(-c3ccco3)cc2C1=CNc1ccc(CN2CCCC2)cc1 [Example 169, 6-Furan-2-yl-4-[(4-pyrrolidin-1-ylmethyl-phenylamino)-methylene]-4H-isoquinoline-1,3-dione] | 200 nM | > 50 µM | > 50 µM |  |  |  |  | 1.8 µM | 2600 nM | 5.2 µM | 2.5 µM
17 | O=C1NC(=O)c2ccc(Br)cc2/C1=C/NCc1cc(O)ccc1O [Example 173, (4Z)-6-Bromo-4-{[(2,5-dihydroxybenzyl)amino]methylene}isoquinoline-1,3(2H,4H)-dione] | 110 nM | 4.7 µM | > 50 µM |  |  |  |  | 8.3 µM | 11000 nM | 17 µM | 12 µM
18 | O=C1NC(=O)c2ccc(Br)cc2/C1=C/NCc1ccc(O)c(O)c1O [Example 175] | 4500 nM | 18.5 µM | 3.1 µM |  |  |  |  | > 50 µM | 28000 nM | > 50 µM | > 50 µM
19 | COc1ccc(C(C)N/C=C2\C(=O)NC(=O)c3ccc(Br)cc32)cc1O (centres unmarked) [Example 189, (4Z)-6-Bromo-4-({[1-(3-hydroxy-4-methoxyphenyl)ethyl]amino}methylene)isoquinoline-1,3(2H,4H)-dione] | 370 nM | > 50 µM | > 50 µM |  |  |  |  | 5.8 µM | 7200 nM | 6.4 µM | 9.9 µM
20 | CCCOc1ccc(CN/C=C2\C(=O)NC(=O)c3ccc(-c4cccc(F)c4)cc32)cc1O [Example 193, (4Z)-6-(3-Fluorophenyl)-4-{[(3-hydroxy-4-propoxybenzyl)amino]methylene}-isoquinoline-1,3(2H,4H)-dione] | 1400 nM | > 50 µM | > 50 µM |  |  |  |  | > 50 µM | 16000 nM | > 50 µM | 4.4 µM
